# How the values were obtained:
# Type in all cases: cell-based, human
# HEPM cells [1] = test: Stimulation of anchorage independent growth assay (soft agar); conditions: 50 pM TGF-β1 at plating, colonies enumerated on day 13
# Experimental: FIGS. 3(A) and 3(B) Bioactivity of TGF-β on HEPM cells: stimulation of growth in soft agar. Cells were treated with 50 pM TGF-β1, at the time of plating and colony formation was enumerated on day 13.
# A 0.5 ml base layer of 0.5% agar (Agar Noble; Difco Laboratories, Detroit, Mich.) in growth medium was added to 24-well Costar tissue culture plates 0.5 ml 0.3% agar in growth medium containing 1×10^4 HEPM cells and various concentrations of TGF-β or other test samples was overlaid on the base layer of agar in triplicate wells. The plates were incubated at 37° C. in a humidifed atmosphere of 5% CO2 in air for up to 14 days without refeeding. Colonies were enumerated unfixed and unstained. The number of colonies with more than 6 cells were scored.
# HEPM cells [2] = test: Growth stimulation assay: incorporation of 5-[125I]iodo-2'-deoxyuridine into DNA of quiescent HEPM cells; conditions: 66 h + 6 h radionuclide label
# Experimental: FIGS. 1(A) and 1(B) Bioactivity of TGF-β on HEPM cells: incorporation of radionuclide into DNA. Results are presented as percent stimulation vs the picomolar (pM) concentration of TGF-β. Percent stimulation was calculated as follows: treated (cpm)-untreated (cpm)/untreated (cpm) x 100. Panel A: TGF-β1, treatment. Panel B: TGF-β2 treatment.
# HEPM cells (5,000 cells/50 μl ) were subcultured in 96-well tissue culture plates (Falcon 30072) in growth medium comprising minimal essential medium (Gibco, Grand Island, N.Y.) supplemented with 10% heat-inactivated fetal bovine serum, 600 μg/ml L-glutamine, 500 μg/ml penicillin and 500 μg/ml streptomycin for a 24-hour period at 37° C. in a humidified 5% CO2 /95% air atosphere. A nondividing, quiescent state of growth was achieved by subsequent incubation for 48 hours in growth medium supplemented with 0.5% fetal bovine serum. Quiescent cells were then stimulated to proliferate by the addition of fetal bovine serum (10 μl ) and test samples of TGF-β1, or TGF-β2 (50 μl). The cells were incubated an additional 66 hours at 37° C. […] The amount of cell growth was measured by the amount of radionuclide incorporated into the DNA of actively growing cells.
# HEPM cells [3] = test: Growth stimulation in monolayer monitored by cell counting; conditions: 50 pM TGF-β1, 96 hours post-treatment
# Experimental: FIG. 2 Bioactivity of TGF-β on HEPM cells: cell proliferation. Cell counts were taken at 24 hour intervals until 120 hours post treatment. The data is presented as the number of cells per well vs incubation time (hours). By 96 hours, cultures treated with 50 pM TGF-β1, ( ) had reached a cell density twice that of untreated cultures ( ).
# Alternatively, growth stimulation in monolayer was monitored by cell counting. Cell monolayers were washed with PBS and then treated with 100 μl 0.25% trypsin solution at 37° C. until cells became detached from the culture surface. Fetal bovine serum (100 μl) was then added to each well to inhibit further action by trypsin. The resulting cell suspension was counted by the standard hemacytometer method. The viability of cells, greater than 98% in these examples, was determined by trypan blue dye-exclusion.
substance,measurement,setting,value
"TGF-β1: Transforming growth factor-Beta type 1; two identical disulfide linked subunits having molecular weights of 13,000; recombinant material used",mean colony number in soft agar,HEPM cells [1],8±1
same,ED50 in stimulating the proliferation of HEPM cells (half-maximal growth stimulation),HEPM cells [2],5 pM
same,cell density compared with untreated cultures,HEPM cells [3],twice

# From US5340925A, “Normal human growth regulatory receptor for TGF-β” (Oncogen, priority 1992, dated 1994)
